# From paper PMC9321663, “The DevTox Germ Layer Reporter Platform: An Assay Adaptation of the Human Pluripotent Stem Cell Test” (Toxics, 2022)
# Entries after “also recorded” stand apart in the source; their conditions may differ. Read-outs that look alike come from different tables or passages of the source.
# Columns and labels:
# [1] = system: SOX17 (endoderm marker) in RUES2-GLR cells; assay: DevTox GLR-Endo assay: decrease in percent SOX17-positive cells (AEID 3094, Sox17_dn); settings: for hit call designation (in words): DevTox GLR-Endo prediction against developmental toxicant classification; for Hit Call: Table S2, SOX17-positive cells, cutoff 3*bmad; for DevTox ACC: Table S2, percent SOX17-positive cells; for HIT−CALL: tcpl plot AEID3094, COFF 20.3; for effect on SOX17-positive cells (in words): 48 h exposure during directed endoderm differentiation; for DevTox-GLR Endo ACC: activity concentration at cutoff, SOX17-positive cells; for MAX_MEAN: tcpl plot AEID3094, maximum mean response
# Procedure, shortened: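 Readouts are loss of SOX17-positive fraction and reduced cell number in endoderm-differentiating RUES2-GLR cells after 48 h of chemical exposure. Controls: undifferentiated and differentiated cells, 0.2% DMSO, and 1 µM SB431542; at least four biological replicates.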
# RUES2-GLR cells = assay: in vitro; settings: for Emax: Homo sapiens, read-out: Cell Count % Max Inhibition
# [2] = system: SOX17 (endoderm marker) in RUES2-GLR cells; assay: DevTox GLR-Endo assay: increase in percent SOX17-positive cells (AEID 3093, Sox17_up); type: cell-based, human; settings: for Emax: Homo sapiens; for HIT−CALL: tcpl plot AEID3093, COFF 20.3
# Experimental: (§1) The total test chemical incubation period was 48 h.
# (§2) (Supplementary Materials).
# [3] = system: BRA (mesoderm marker) in RUES2-GLR cells; assay: DevTox GLR-Endo assay: increase in percent BRA-positive cells (AEID 3096, Bra_up); type: cell-based, human; settings: for HIT−CALL: tcpl plot AEID3096, COFF 0.774; for MAX_MEAN: tcpl plot AEID3096, maximum mean response; for MAX_MED: tcpl plot AEID3096, maximum median response
# Experimental: as §1, §2
# [4] = system: o/c ratio in H9 embryonic stem cells; settings: Teratogen Index, o/c ratio; cited from earlier work
# H9 embryonic stem cells = settings: concentration at cell viability cutoff; cited from earlier work
# [5] = cited from earlier work; for Development Toxicant Classification: Table S2; for Classification: developmental toxicant classification (Teratogen / Non-Teratogen) of reference and training chemicals, ref DOI per chemical: 10.1093/toxsci/kft239, 10.1093/toxsci/kfaa014, 10.1177/026119290203000204, 10.1038/s41598-020-59542-x; for DT Class.: developmental toxicant classification
# [6] = system: SOX2 (ectoderm and pluripotency marker) in RUES2-GLR cells; assay: DevTox GLR-Endo assay: increase in percent SOX2-positive cells (AEID 3095, Sox2_up); settings: for AC50 / Emax: Homo sapiens; for AC50: read-out: ga (winning model); for Emax: read-out: tp (winning model); for MAX_MEAN: tcpl plot AEID3095, maximum mean response; for MAX_MED: tcpl plot AEID3095, maximum median response;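 as to all read-outs here: cells exposed to test chemicals for 48 h in total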
# [7] = DevTox GLR-Endo assay: decrease in total cell count, cytotoxicity (AEID 3098, CellCount_dn); settings: human, RUES2-GLR cells under directed endoderm differentiation
# [8] = system: SOX17 in H9 human ESC line; settings: SOX17 half-maximal inhibition concentration; read-out: hPST IC50; cited from earlier work
# H9 human ESC line = settings: cited from earlier work
# [9] = Homo sapiens, read-out: DevTox % Max Inhibition
# [10] = Homo sapiens, read-out: MAX_MEAN
# [11] = Homo sapiens, read-out: MAX_MED
# [12] = tcpl plot AEID3093, maximum mean response, read-out: MAX_MEAN
# [13] = tcpl plot AEID3093, maximum median response, read-out: MAX_MED
# [14] = chemicals common with quickPredict
# [15] = Homo sapiens, 48 h, read-out: DevTox-GLR Endo AC50 (µM), SOX17 half-maximal activity concentration, 48 h exposure
# [16] = Homo sapiens, read-out: ga (winning model), tcpl plot AEID3094, gain parameter of winning curve fit (log concentration, µM axis), hit calls only (converted)
# [17] = Homo sapiens, read-out: tp (winning model)
# [18] = cytotoxicity half-maximal concentration
# [19] = tcpl plot AEID3093, maximum mean response
# [20] = tcpl plot AEID3093, maximum median response
Compound,"Emax [1, 9] [%]","Emax [1, 10] [%]","Emax [1, 11] [%]",Hit Call [1],DevTox ACC ([1]; 48 h exposure) [µM],HIT−CALL [1],Emax (RUES2-GLR cells) [%],"Cell Count ACC (RUES2-GLR cells; human, 48 h) [µM]","Emax [2, 12] [%]","Emax [2, 13] [%]",HIT−CALL [2],HIT−CALL [3],MAX_MEAN [3] [Percent Activity],MAX_MED [3] [Percent Activity],quickPredict TI [4] [µM],Development Toxicant Classification [5],Classification [5],"DT Class. [5, 14]",MAX_MEAN [6] [Percent Activity],MAX_MED [6] [Percent Activity],further results
CN(Cc1cnc2nc(N)nc(N)c2n1)c1ccc(C(=O)N[C@@H](CCC(=O)O)C(=O)O)cc1 [Methotrexate],24.6,22.4,24.6,Negative,>200,0,44.6,0.3474,2.23,2.87,0,1,1.26,1.19,0.059,Positive,Teratogen,Pos,0.917,0.899,"hit call designation (in words) [1]: borderline calls; Emax ([1]; Homo sapiens, read-out: maximum observed effect level class (% max inhibition)): 20 to 80%; effect on cell count (in words) (RUES2-GLR cells): significant decreases in cell count; DevTox-GLR Endo CC (RUES2-GLR cells; human, 48 h): 0.35 µM; effect on cell count (in words) (RUES2-GLR cells; human, 48 h): significant cell loss that did not impact SOX17-positive populations; quickPredict CV (H9 embryonic stem cells): 0.062 µM; AC50 [6]: 52.5 nM; Emax [6]: 0.771%"
O=C1CCC(N2C(=O)c3ccccc3C2=O)C(=O)N1 (stereo not drawn) [Thalidomide],79.1,78,79.1,Positive,0.2523,1,19.5,>200,4.62,3.35,0,0,0.925,0.968,1.27,Positive,Teratogen,Pos,0.64,0.473,"effect on SOX17-positive cells (in words) [1]: significant reductions in the SOX17-positive sub-population; effect on SOX17-positive cells (in words) ([1]; listed as thalidomide): concentration-dependent loss of SOX17-positive cells; IC50 ([1]; Homo sapiens, 48 h): 1710 nM; AC50 [1, 15]: 1.64 µM; AC50 [1, 16]: 1.64 µM; Emax [1, 17]: 81.4%; DevTox-GLR Endo ACC ([1]; 48 h exposure): 0.25 µM; % Max Inhibition ([1]; maximum inhibition of SOX17-positive cells, reference chemical testing, 48 h exposure): 58%; CC50 at 48 h [7]: > 200000 nM; effect on cell counts (in words) (RUES2-GLR cells): cell counts remained constant; IC50 [8]: 500 nM; hPST TC50 (H9 human ESC line; [18]): >200000 nM; hPST TC50 (H9 human ESC line; hPST cytotoxicity): > 200000 nM; DT Class. ([5]; chemicals common with hPST): Pos; Developmental Toxicant Classification ([5]; reference chemicals): Positive"
CC(C)(c1ccc(O)cc1)c1ccc(O)cc1 [Bisphenol A],102,102,102,Positive,31.7467,1,94.4,21.1157,9.9,10.7,0,,,,,Positive,Teratogen,Pos,4.11,3.32,"AC50 [1, 16]: 38.9 µM; Emax [1, 17]: 102%; DevTox-GLR Endo ACC ([1]; 48 h exposure): 31.75 µM; DevTox-GLR Endo CC (RUES2-GLR cells; human, 48 h): 21.12 µM; quickPredict CV (H9 embryonic stem cells): 39.4 µM; AC50 [6]: 38000 nM; Emax [6]: 3.24%"
C[C@@H]1C[C@H]2[C@@H]3CCC4=CC(=O)C=C[C@]4(C)[C@@]3(F)[C@@H](O)C[C@]2(C)[C@@]1(O)C(=O)CO [Dexamethasone],,,,Negative,>200,1,,,,,0,0,0.923,0.979,37.7,Positive,Teratogen,Pos,0.622,0.482,"hit call designation (in words) [1]: borderline calls; ga (winning model) ([1]; tcpl plot AEID3094, gain parameter of winning curve fit (log concentration, µM axis), hit calls only): −6.88; MAX_MEAN [1]: 20.7 Percent Activity; tp (winning model) ([1]; tcpl plot AEID3094, top of winning curve fit (Hill or gain-loss), hit calls only): 41.8; Cell Count ACC (RUES2-GLR cells): 13.83 µM; DevTox-GLR Endo CC (RUES2-GLR cells): 13.83 µM; effect on cell count (in words) (RUES2-GLR cells): significant cell loss that did not impact SOX17-positive populations; MAX_MEAN [2, 19]: −0.0942 Percent Activity; MAX_MED [2, 20]: 0.457 Percent Activity"
O=C(O)c1ccccc1O [Salicylic Acid],6.91,7.1,6.91,Negative,>200,0,11.5,>200,8.74,9.69,0,0,0.835,0.894,513,,Non-Teratogen,Neg,0.533,0.494,quickPredict CV (H9 embryonic stem cells): 1795 µM
NC(=O)NO [Hydroxyurea],,,,Negative,>200,0,,,,,0,0,0.733,0.69,74.9,Positive,Teratogen,Pos,1.5,0.557,"hit call designation (in words) [1]: false negative; DevTox % Max Inhibition ([1]; Table S2, percent SOX17-positive cells relative to DMSO): 15.8672%; maximum observed effect level class (% max inhibition) ([1]; stratification of training set chemicals): weak (weak (0–20% max inhibition)); MAX_MEAN [1]: 17.2 Percent Activity; MAX_MED ([1]; tcpl plot AEID3094, maximum median response): 15.9 Percent Activity; Cell Count ACC (RUES2-GLR cells; Table S2, 48 h exposure): 64.5432 µM; Cell Count % Max Inhibition (RUES2-GLR cells; Table S2, cell count relative to DMSO): 34.555%; DevTox-GLR Endo CC (RUES2-GLR cells; concentration at cell count cutoff, 48 h exposure): 64.54 µM; effect on cell count (in words) (RUES2-GLR cells; training set, 48 h exposure): significant cell loss that did not impact SOX17-positive populations; also recorded: significant decreases in cell count; MAX_MEAN [2, 19]: 13.7 Percent Activity; MAX_MED [2, 20]: 16 Percent Activity; quickPredict CV (H9 embryonic stem cells): 237 µM"
NC(=O)N1c2ccccc2C=Cc2ccccc21 [Carbamazepine],52.2,52.1,52.2,Positive,64.024,1,39.1,57.7753,12.3,12.1,0,1,1.14,1.04,2.29,Positive,Teratogen,Pos,0.534,0.576,"AC50 [1, 15]: 103 µM; AC50 [1, 16]: 102 µM; Emax [1, 17]: 65.3%; DevTox-GLR Endo ACC ([1]; 48 h exposure): 64.02 µM; CC50 at 48 h [7]: 137000 nM; DevTox-GLR Endo CC (RUES2-GLR cells; human, 48 h): 57.78 µM; IC50 [8]: 80 nM; hPST TC50 (H9 human ESC line; [18]): 190 nM; hPST TC50 (H9 human ESC line; hPST cytotoxicity): 190 nM; DT Class. ([5]; chemicals common with hPST): Pos"
